{"source": "patent US11780845B2", "about": "(Relay Therapeutics, Inc., priority 2019, dated 2023)", "key": {"SNU-16": {"test_system": "SNU-16", "assay": "Cell SNU-16 assay", "type": "cell-based"}, "FGFR2": {"molecular_target": "FGFR2 (Homo sapiens (Human), UniProt P21802)", "sequence (P21802 22-821)": "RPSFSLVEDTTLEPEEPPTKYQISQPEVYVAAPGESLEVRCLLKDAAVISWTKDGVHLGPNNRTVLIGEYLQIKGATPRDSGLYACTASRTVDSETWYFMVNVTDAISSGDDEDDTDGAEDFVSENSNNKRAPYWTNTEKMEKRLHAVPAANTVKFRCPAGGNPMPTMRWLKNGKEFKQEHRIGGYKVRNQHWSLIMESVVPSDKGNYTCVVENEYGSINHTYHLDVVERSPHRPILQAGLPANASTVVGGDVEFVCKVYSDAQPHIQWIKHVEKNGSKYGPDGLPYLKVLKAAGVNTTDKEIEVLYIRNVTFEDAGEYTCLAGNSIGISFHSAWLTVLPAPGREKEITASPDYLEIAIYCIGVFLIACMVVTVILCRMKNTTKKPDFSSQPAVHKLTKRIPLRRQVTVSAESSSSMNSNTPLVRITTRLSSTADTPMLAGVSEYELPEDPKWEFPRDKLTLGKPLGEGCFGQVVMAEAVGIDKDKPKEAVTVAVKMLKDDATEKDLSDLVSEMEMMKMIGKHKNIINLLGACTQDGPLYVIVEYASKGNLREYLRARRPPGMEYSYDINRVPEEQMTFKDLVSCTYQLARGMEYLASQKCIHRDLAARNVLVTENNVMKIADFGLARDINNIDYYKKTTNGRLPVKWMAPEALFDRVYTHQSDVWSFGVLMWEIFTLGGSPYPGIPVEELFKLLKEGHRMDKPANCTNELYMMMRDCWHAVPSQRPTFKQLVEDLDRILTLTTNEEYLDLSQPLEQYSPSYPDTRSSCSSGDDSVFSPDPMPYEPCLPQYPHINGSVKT", "assay": "Biochemical FGFR2 Caliper assay"}, "[1]": {"conditions": "Homo sapiens, SNU-16, SNU-16 cells"}}, "data": [{"smiles": "Cc1ccnc(Oc2ccc(-c3c(-c4ccc(-c5cnc(C#N)o5)cc4)n(C)c4ncnc(N)c34)cc2)n1", "note": "[Example 915]", "values": [{"measurement": "IC50", "setting": "SNU-16; [1]", "value": "250 to 1000", "unit": "nM"}, {"measurement": "IC50", "setting": "FGFR2", "value": "1000 to 100000", "unit": "nM"}]}, {"smiles": "C=CC(=O)N1CCc2ccc(-c3c(-c4ccc(Oc5nccc(C)n5)cc4)c4c(N)ncnc4n3C)cc2C1", "note": "[Example 916]", "values": [{"measurement": "IC50", "setting": "SNU-16; [1]", "value": "100 to 250", "unit": "nM"}, {"measurement": "IC50", "setting": "FGFR2", "value": "1000 to 100000", "unit": "nM"}]}, {"smiles": "C=CC(=O)NCc1ccc(-c2c(-c3ccc(Oc4nccc(C)n4)cc3)c3c(N)ncnc3n2C)cc1", "note": "[Example 921]", "values": [{"measurement": "IC50", "setting": "SNU-16; [1]", "value": "250 to 1000", "unit": "nM"}, {"measurement": "IC50", "setting": "FGFR2", "value": "1000 to 100000", "unit": "nM"}]}, {"smiles": "C=C(C)C(=O)Nc1ccc(-c2c(C3=CCN(C(=O)C4CCCC4)CC3)c3c(N)ncnc3n2C)cc1", "note": "[Example 922]", "values": [{"measurement": "IC50", "setting": "SNU-16; [1]", "value": "250 to 1000", "unit": "nM"}, {"measurement": "IC50", "setting": "FGFR2", "value": "250 to 1000", "unit": "nM"}]}, {"smiles": "C=C(C)C(=O)Nc1ccc(-c2c(C3=CCN(C(=O)N4CCCC4)CC3)c3c(N)ncnc3n2C)cc1", "note": "[Example 923]", "values": [{"measurement": "IC50", "setting": "SNU-16; [1]", "value": "250 to 1000", "unit": "nM"}, {"measurement": "IC50", "setting": "FGFR2", "value": "1000 to 100000", "unit": "nM"}]}, {"smiles": "CC1=CCN(c2ccc(-c3c(-c4ccc(Oc5nccc(C)n5)cc4)c4c(N)ncnc4n3C)cc2)C1=O", "note": "[Example 924]", "values": [{"measurement": "IC50", "setting": "SNU-16; SNU-16 cells", "value": "1000 to 100000", "unit": "nM"}, {"measurement": "IC50", "setting": "FGFR2", "value": "1000 to 100000", "unit": "nM"}]}, {"smiles": "C=C(C)C(=O)Nc1ccc(-c2c(C3=CC[C@@H](C(=O)N4CCCC4)C[C@@H]3C)c3c(N)ncnc3n2C)cc1", "note": "[Example 937]", "values": [{"measurement": "IC50", "setting": "SNU-16; [1]", "value": "1000 to 100000", "unit": "nM"}, {"measurement": "IC50", "setting": "FGFR2", "value": "1000 to 100000", "unit": "nM"}]}, {"smiles": "C=CC(=O)NC(C)(C)c1ccc(-c2c(-c3ccc(Oc4nccc(C)n4)cc3)c3c(N)ncnc3n2C)cc1", "note": "[Example 943]", "values": [{"measurement": "IC50", "setting": "SNU-16; [1]", "value": "250 to 1000", "unit": "nM"}, {"measurement": "IC50", "setting": "FGFR2", "value": "250 to 1000", "unit": "nM"}]}, {"smiles": "C=C(C)C(=O)Nc1ccc(-c2c(-c3ccc(C(=O)NCC4(F)CCC4)c(OC)c3)c3c(N)ncnc3n2C)cc1", "note": "[Example 946]", "values": [{"measurement": "IC50", "setting": "SNU-16; [1]", "value": "1000 to 100000", "unit": "nM"}, {"measurement": "IC50", "setting": "FGFR2", "value": "250 to 1000", "unit": "nM"}]}, {"smiles": "C=Cc1ncc(-c2ccc(-c3c(-c4ccc(Oc5nccc(C)n5)cc4)c4c(N)ncnc4n3C)cc2)o1", "note": "[Example 947]", "values": [{"measurement": "IC50", "setting": "SNU-16; [1]", "value": "≤ 100", "unit": "nM"}, {"measurement": "IC50", "setting": "FGFR2", "value": "< 100", "unit": "nM"}]}, {"smiles": "Cc1ccnc(Oc2ccc(-c3c(-c4ccc(NCC5CO5)cc4)n(C)c4ncnc(N)c34)cc2)n1", "note": "(stereo not shown) [Example 948]", "values": [{"measurement": "IC50", "setting": "SNU-16; [1]", "value": "1000 to 100000", "unit": "nM"}, {"measurement": "IC50", "setting": "FGFR2", "value": "1000 to 100000", "unit": "nM"}]}, {"smiles": "Cc1ccnc(Oc2ccc(-c3c(-c4ccc(NC(=O)C5=COCC5)cc4)n(C)c4ncnc(N)c34)cc2)n1", "note": "[Example 952]", "values": [{"measurement": "IC50", "setting": "SNU-16; [1]", "value": "≤ 100", "unit": "nM"}, {"measurement": "IC50", "setting": "FGFR2", "value": "< 100", "unit": "nM"}]}, {"smiles": "C=C(C)C(=O)Nc1ccc(-c2c(-c3ccc(C(=O)NC4(COC)CCC4)c(OC)c3)c3c(N)ncnc3n2C)cc1", "note": "[Example 956]", "values": [{"measurement": "IC50", "setting": "SNU-16; [1]", "value": "≤ 100", "unit": "nM"}, {"measurement": "IC50", "setting": "FGFR2", "value": "< 100", "unit": "nM"}]}, {"smiles": "Cc1ccnc(Oc2ccc(-c3c(-c4ccc(-c5cnc(C#N)s5)cc4)n(C)c4ncnc(N)c34)cc2)n1", "note": "[Example 959]", "values": [{"measurement": "IC50", "setting": "SNU-16; [1]", "value": "≤ 100", "unit": "nM"}, {"measurement": "IC50", "setting": "FGFR2", "value": "250 to 1000", "unit": "nM"}]}, {"smiles": "C=C(C)C(=O)Nc1ccc(-c2c(-c3ccc(C(=O)N[C@H]4C[C@@H](F)C4)c(OC)c3)c3c(N)ncnc3n2C)cc1", "note": "[Example 964]", "values": [{"measurement": "IC50", "setting": "SNU-16; [1]", "value": "≤ 100", "unit": "nM"}, {"measurement": "IC50", "setting": "FGFR2", "value": "< 100", "unit": "nM"}]}, {"smiles": "C=C(C)C(=O)Nc1ccc(-c2c(-c3ccc(C(=O)N[C@H]4C[C@H](F)C4)c(OC)c3)c3c(N)ncnc3n2C)cc1", "note": "[Example 965]", "values": [{"measurement": "IC50", "setting": "SNU-16; [1]", "value": "≤ 100", "unit": "nM"}, {"measurement": "IC50", "setting": "FGFR2", "value": "< 100", "unit": "nM"}]}, {"smiles": "C=C(C)C(=O)Nc1ccc(-c2c(-c3ccc(C(=O)N[C@H]4C[C@H](F)C4)c(COC)c3)c3c(N)ncnc3n2C)cc1", "note": "[Example 966]", "values": [{"measurement": "IC50", "setting": "SNU-16; [1]", "value": "≤ 100", "unit": "nM"}, {"measurement": "IC50", "setting": "FGFR2", "value": "< 100", "unit": "nM"}]}, {"smiles": "C=C(C)C(=O)Nc1ccc(-c2c(-c3ccc(C(=O)N[C@H]4C[C@@H](F)C4)c(COC)c3)c3c(N)ncnc3n2C)cc1", "note": "[Example 967]", "values": [{"measurement": "IC50", "setting": "SNU-16; [1]", "value": "1000 to 100000", "unit": "nM"}, {"measurement": "IC50", "setting": "FGFR2", "value": "1000 to 100000", "unit": "nM"}]}, {"smiles": "C#Cc1ncc(-c2c(-c3ccc(C(=O)N4CCCC4)cc3)c3c(N)ncnc3n2C)cn1", "note": "[Example 968]", "values": [{"measurement": "IC50", "setting": "SNU-16; [1]", "value": "250 to 1000", "unit": "nM"}, {"measurement": "IC50", "setting": "FGFR2", "value": "250 to 1000", "unit": "nM"}]}, {"smiles": "C=C(C)C(=O)Nc1ccc(-c2c(C3=CCC(C(=O)N4CCCC4)CC3(F)F)c3c(N)ncnc3n2C)cc1", "note": "(stereo not shown) [Example 969]", "values": [{"measurement": "IC50", "setting": "SNU-16; [1]", "value": "≤ 100", "unit": "nM"}, {"measurement": "IC50", "setting": "FGFR2", "value": "< 100", "unit": "nM"}]}, {"smiles": "C=C(C)C(=O)Nc1ccc(-c2c(-c3ccc(C(=O)N[C@H]4C[C@H](F)C4)c(OC(F)F)c3)c3c(N)ncnc3n2C)cc1", "note": "[Example 970]", "values": [{"measurement": "IC50", "setting": "SNU-16; [1]", "value": "1000 to 100000", "unit": "nM"}, {"measurement": "IC50", "setting": "FGFR2", "value": "1000 to 100000", "unit": "nM"}]}, {"smiles": "C=C(C)C(=O)Nc1ccc(-c2c(-c3ccc(C(=O)N[C@H]4C[C@@H](F)C4)c(OC(F)F)c3)c3c(N)ncnc3n2C)cc1", "note": "[Example 971]", "values": [{"measurement": "IC50", "setting": "SNU-16; [1]", "value": "250 to 1000", "unit": "nM"}, {"measurement": "IC50", "setting": "FGFR2", "value": "250 to 1000", "unit": "nM"}]}, {"smiles": "C=C(C)C(=O)Nc1ccc(-c2c(-c3ccc(C(=O)N[C@H]4C[C@@H](F)C4)c(OC4CC4)c3)c3c(N)ncnc3n2C)cc1", "note": "[Example 976]", "values": [{"measurement": "IC50", "setting": "SNU-16; [1]", "value": "1000 to 100000", "unit": "nM"}, {"measurement": "IC50", "setting": "FGFR2", "value": "1000 to 100000", "unit": "nM"}]}, {"smiles": "C=C(C)C(=O)Nc1ccc(-c2c(-c3ccc(C(=O)N[C@H]4C[C@H](F)C4)c(OC4CC4)c3)c3c(N)ncnc3n2C)cc1", "note": "[Example 978]", "values": [{"measurement": "IC50", "setting": "SNU-16; [1]", "value": "250 to 1000", "unit": "nM"}, {"measurement": "IC50", "setting": "FGFR2", "value": "250 to 1000", "unit": "nM"}]}, {"smiles": "CC(=O)C(=O)Nc1ccc(-c2c(-c3ccc(C(=O)N4CCc5ccccc54)cc3)c3c(N)ncnc3n2C)cc1", "note": "[Example 980]", "values": [{"measurement": "IC50", "setting": "SNU-16; [1]", "value": "≤ 100", "unit": "nM"}, {"measurement": "IC50", "setting": "FGFR2", "value": "< 100", "unit": "nM"}]}, {"smiles": "C=C(C)C(=O)Nc1ccc(-c2c(-c3ccc(C(=O)NCC4CCC4)c(OC)n3)c3c(N)ncnc3n2C)cc1", "note": "[Example 983]", "values": [{"measurement": "IC50", "setting": "SNU-16; [1]", "value": "≤ 100", "unit": "nM"}, {"measurement": "IC50", "setting": "FGFR2", "value": "< 100", "unit": "nM"}]}, {"smiles": "C=Cc1ncc(-c2ccc(-c3c(-c4ccc(Oc5nccc(C)n5)cc4)c4c(N)ncnc4n3C)cc2)s1", "note": "[Example 984]", "values": [{"measurement": "IC50", "setting": "SNU-16; [1]", "value": "≤ 100", "unit": "nM"}, {"measurement": "IC50", "setting": "FGFR2", "value": "< 100", "unit": "nM"}]}, {"smiles": "C=CC(=O)N1CC=C(c2ccc(-c3c(-c4ccc(Oc5cccc(C)n5)cc4)c4c(N)ncnc4n3C)cc2)C1", "note": "[Example 989]", "values": [{"measurement": "IC50", "setting": "SNU-16; [1]", "value": "250 to 1000", "unit": "nM"}, {"measurement": "IC50", "setting": "FGFR2", "value": "1000 to 100000", "unit": "nM"}]}, {"smiles": "C=CC(=O)Nc1ccc(-c2c(-c3ccc(C(=O)NCC(C)C)cc3)c3c(N)ncnc3n2C)cc1", "note": "[Example 990]", "values": [{"measurement": "IC50", "setting": "SNU-16; [1]", "value": "≤ 100", "unit": "nM"}, {"measurement": "IC50", "setting": "FGFR2", "value": "< 100", "unit": "nM"}]}]}
